Common to all, as to assay type: in vivo, Sprague-Dawley rat
Test [1] has as its system p-nitrophenol hydroxylase. Kind of test: p-Nitrophenol hydroxylase activity of hepatic microsomes (Experimental Example 1(2-1)). As to conditions: 200 mg/kg. On the procedure:
In order to examine the effect of the compound of the present invention on the activity of the enzymes involved in phase I reaction, the experiments were carried out as follows:
(§1) Six groups of Sprague-Dawley rat weighing 190±30 g were administered with pyrazine(Groups 1 to 3) or the compound prepared in Example 1-1(Groups 4 to 6) in a dose of 200 mg/kg for 1, 2 or 3 days. After the hepatic microsomes were separated by following the same procedure as in the above (1), activity of p-nitrophenol hydrolase was measured according to the method of Koop(Dennis R. Koop, Hydroxylation p-nitrophenol by rabbit ethanol inducible cytochrome P-450 isozyme 3a, Molecular Pharmacol. 29, 399-404(1986)).
Thus, 1 mg of microsomes and 1mM p-nitrophenol were added to 0.6 ml of 0.1M potassium phosphate buffer(pH 6.8) to make the total volume of 0.9 ml. The resulting mixture was preliminarily reacted in a 37° C. incubator for 2 minutes and started to react while adding 1 mM NADPH(0.1 ml). After 3 minutes, 0.5 ml of 0.6N perchloric acid was added to develop a color and the absorbance at 546 nm was measured at once. The enzyme activity was expressed in terms of mole concentration of 4-nitrocatechol, the product of reaction for 1 minute.

Test [2] relates to microsomal epoxide hydrolase (mEH). Kind of test: Western blot analysis for microsomal epoxide hydrolase (Experimental Example 3(1)). The conditions noted are these: 200 mg/kg i.p. for 1, 2 or 3 days; FIG. 6. On the procedure: The hepatic microsomes were separated and subjected to SDS-polyacrylamide gel electrophoresis by following the same procedure as in the above Experimental Example 1(1). Thereafter, western blot analysis for microsomal epoxide hydrolase(mEH) was carried out as follows:
Streptavidine-horseradish peroxidase and 4-chloro-1-naphtol were added to the reaction mixture to develop a color.
In general terms: In western blotting, separated proteins are transferred to a membrane and probed.

The test system of another test is aniline hydroxylase. The test is described as follows: Aniline hydroxylase activity of hepatic microsomes (Experimental Example 1(2-2)). The conditions noted are these: 200 mg/kg. On the procedure: as §1
The same procedure as in the above (2-1) was carried out to measure the activity of aniline hydroxylase. The activity of aniline hydroxylase was measured according to the method of Mieyal(John J. Mieyal, Acceleration of the autooxidation of human oxyhemoglobin by aniline and its relation to hemoglobin-catalyzed aniline hydroxylation, J. Biol. Chem. 251, 3442-3446(1976)).
Thus, 1 mg of microsomes and 5 mM aniline were added to 0.6 ml of 0.1M potassium phosphate buffer(pH 6.8) to make the total volume of 0.9 ml. 1 mM NADPH was added to make the total volume of 1.0 ml and the resulting mixture was reacted at 37° C. After 10 minutes, 20% trichloroacetic acid was added to stop the reaction and the reaction mixture was centrifuged. To 1 ml of supernatant were added 0.1 ml of 5% phenol and 0.1 ml of 2.5N sodium carbonate, dissolved in 0.1N NaOH. The mixture was allowed to stand for 30 minutes to develop a color and the absorbance at 630 nm was measured at once. The enzyme activity was expressed in terms of mole concentration of 4-aminophenol, the product of reaction for 1 minute.

The test system of test [3] is N-nitrosodimethylamine demethylase. Kind of test: N-Nitrosodimethylamine demethylase activity of hepatic microsomes (Experimental Example 1(2-3)). As to conditions: 200 mg/kg, 1 to 3 days, time-dependent. On the procedure:
as §1
The same procedure as in the above (2-1) was carried out to measure the activity of N-nitrosodimethyl demethylase. The activity of N-nitrosodimethyl demethylase was measured according to the method of Kaul and Novak(Kaul, L. L. and Novak, R. F., Induction of rabbit hepatic microsomal cytochrome P-450 by imidazole; enhanced metabolic activity and altered substrate specificity, Arch. Biochem. Biophys., 235, 470-481(1984)).
Thus, 10 mM N-Nitrosodimethylamine and 0.6 ml of 0.1M potassium phosphate buffer(pH 7.4) were added to 1 mg of microsomes, and 1 mM NADPH was added to make the total volume of 1 ml. After the mixture was reacted at 37° C. for 30 minutes, 20% trichloroacetic acid was added to stop the reaction and the reaction mixture was centrifuged. […] The mixture was allowed to stand at 37° C. for 45 minutes to develop a color and the absorbance at 412 nm was measured. […]

Results on one compound are retold here after US5658913A, “Chemopreventive compounds and a preparation method and use thereof” (Kim; Nak Doo, priority 1993, dated 1997).

For the compound `C=CCSc1cnccn1` [Example 1-1, 2-(2-propenylthio)pyrazine], the “decrease in activity of p-nitrophenol hydrolase compared to pyrazine groups” value in test [1] (1 day) worked out at 64%; in test [1] (2 days), 73%; in test [1] (3 days), 82%. In test [2], the “expression of mEH compared to control or pyrazine groups” value is “significant increase in the expression of mEH”. Besides, the “decrease in activity of aniline hydroxylase compared to pyrazine groups” value with aniline hydroxylase (1 day) came out at 57%; with aniline hydroxylase (2 days), 80%; in the test on aniline hydroxylase (3 days) it was 88%. Moreover, the “decrease in activity of N-nitrosodimethylamine demethylase compared to pyrazine groups” value in test [3] is recorded as 49-73%.
